Source: patent US10167258B2, “Inhibitors of mitochondrial pyruvate dehydrogenase kinase isoforms 1-4 and uses thereof” (The Board of Regents of the University of Texas System, priority 2013, dated 2019)
Read-outs that look alike come from different tables or passages of the source.

What was measured:
[1] = biological target: T1, N-terminal domain of human Hsp90 (Homo sapiens, UniProt P07900); experiment: Isothermal titration calorimetry (ITC), binding to Hsp90 N-terminal domain; settings: read-out: Kd, nM for Hsp 90
T1 construct: the N-terminal domain (residue 1-236) of human Hsp90; His6 (N); SUMO (N); made in house; host or cells: E. coli BL21
Description: The sequence encoding the N-terminal domain was amplified and cloned into the pSUMO expression vector (Lifesensors, Malvern, Pa.). The fusion protein of His6-tagged SUMO-Hsp90 N-terminal domain was expressed in E. coli BL21 cells and purified with Ni-NTA resin (Qiagen) and on Superdex-200 column in 20 mM Tris.HCl, pH 7.5 and 500 mM NaCl.
The PDK2 or Hsp90 N-terminal domain protein was dialyzed against one liter of the dialysis buffer containing 50 mM Tris-Cl, pH 7.5, 50 mM KCl, 1 mM MgCl2, and 0.5 mM β-mercaptoethanol. […] All of the ITC data were initially analyzed by the NITPIC program (32) to construct the baseline, followed by curve-fitting in Origin 7 to obtain binding parameters.

PDK4 = PDK4 (Homo sapiens, UniProt Q16654); experiment: Assay for inhibition of PDK activity, PDK4; assay type: biochemical; set-up: made in house
Description: Recombinant human PDK2 was expressed and purified as a N terminal His6-tagged SUMO fusion protein with a tobacco-etch-virus protease (TEV) cleavage site in front of the N-terminal PDK2 sequence (26), and was used directly for the activity assay and binding affinity analyses. […] The purified protein was concentrated to 35-40 mg/ml and stored at −80° C. in small aliquots. Recombinant human PDK1, PDK3 and PDK4 were expressed and purified as described previously (26).
The remaining steps were described previously (26). IC50 values were obtained by the curve fitting of inhibition isotherms using Prism 6 (GraphPad software, Inc.).

DIO mice = experiment: Histochemistry of the liver (Oil Red O) of DIO mice; assay type: in vivo; settings: 70 mg/kg/day
Description: Histological examination of the liver was performed in the institutional Immunohistochemistry Laboratory. Liver tissue was dissected, grossly trim then fixed by immersion for 48 hrs in 4% Formalin/PBS (4% […], 137 mM NaCl, 2.7 mM KCl and 10 mM phosphate buffer, pH 7.5) at 4° C. Liver samples were then transferred to 10% (w/v) sucrose in PBS and incubate at 4° C. for 24 hrs. Tissues were incubated in 18% sucrose in PBS at 4° C. for 24 hours. Finally, samples were transferred to a fresh 18% sucrose solution and embedded in OCT (Optimal cutting temperature compound), cryo-sectioned and stained with Oil Red O.

PDC = experiment: Assay for PDC activity in tissues of treated DIO mice; assay type: in vivo; settings: single dose 70 mg/kg IP, 10 h
Description: Six- to eight-week old C57BL/6J male mice were obtained from the local campus breeding colony at UT Southwestern Medical Center (Dallas, Tex.) and randomized into two groups: vehicle- and PS10-treated. Prior to the treatment, mice were fed with a 60% high-fat diet, which contained 32% saturated and 68% unsaturated fat (catalog number: D12492, Research Diet Inc. New Brunswick, N.J.), for eight to ten weeks to produce DIO animals. PS-10 was dissolved in 100% DMSO and then diluted to make a 10% DMSO aqueous solution containing 17.5% (w/v) (2-hydroxypropyl)-β-cyclodextrin for delivery. Animals were dosed at mid-day by intraperitoneal (IP) injections at 70 mg/kg using 1-ml syringe and 30-gauge needle. The length of the treatment is indicted in each experiment. At 10 h after the last injection, animals were euthanized using carbon dioxide asphyxiation followed by cervical dislocation and dissection. Blood was harvested by cardiac puncture and stored on ice. Acidified citrate dextrose (ACD) was used as an anticoagulant. Immediately after blood collection, heart, liver, kidneys and both hind-leg quadriceps muscles were removed and snap frozen in liquid nitrogen. Average ischemia time before organ harvest was about 2 to 3 min. Blood was centrifuged in an Eppendorf 5415R refrigerated microcentrifuge at 9,300×g for 5 min to isolate plasma, which was subsequently stored at −80° C.
Liquid nitrogen-stored tissue samples were removed and thawed on ice. Individual kidneys (200-250 mg), hearts (200-300 mg), muscle (200-300 mg) and liver (250-400 mg) tissues samples were manually homogenized in an ice-chilled glass homogenizer containing 1 ml of the homogenization buffer. The homogenization buffer contained 30 mM KPi, pH 7.5, 3 mM EDTA, 5 mM DTT, 1 mM benzamidine, 3% fetal bovine serum, 5% Triton X-100 and 1 mM leupeptin. Samples were transferred to ice-cold 10 ml polycarbonate tubes and spun in an ultracentrifuge at 25,000×g for 10 min to pellet cell and tissue debris. Supernatants were removed and stored on ice until diluted (1:3 for muscle, 1:5 for liver and 1:20 for kidneys and heart tissues) with a dilution buffer containing 50 mM HEPES, pH 7.5, 1.0 mM DTT, 0.1% Triton X-100, 5 mM DCA, 50 mM NaF, 3% fetal bovine serum and 1 mM leupeptin. The diluted samples (50 μl) were placed in each well of a 24-well plate containing 310 μl of the reaction mixture. A micro-bridge (Hampton Research) was pre-set into each well holding one piece of filter wick pre-soaked with 2 M NaOH. […] Assay plates were incubated further at 37° C. for 45 min. ^14CO2-trapped on 2 M NaOH soaked filter wicks were counted in a liquid scintillation counter. Total protein concentrations in the samples were determined by using BCA protein assay kit (Thermo fisher Scientific, Rockford, Ill.).

Sequence of PDK4 (Q16654 whole entry, the tested form may be a part): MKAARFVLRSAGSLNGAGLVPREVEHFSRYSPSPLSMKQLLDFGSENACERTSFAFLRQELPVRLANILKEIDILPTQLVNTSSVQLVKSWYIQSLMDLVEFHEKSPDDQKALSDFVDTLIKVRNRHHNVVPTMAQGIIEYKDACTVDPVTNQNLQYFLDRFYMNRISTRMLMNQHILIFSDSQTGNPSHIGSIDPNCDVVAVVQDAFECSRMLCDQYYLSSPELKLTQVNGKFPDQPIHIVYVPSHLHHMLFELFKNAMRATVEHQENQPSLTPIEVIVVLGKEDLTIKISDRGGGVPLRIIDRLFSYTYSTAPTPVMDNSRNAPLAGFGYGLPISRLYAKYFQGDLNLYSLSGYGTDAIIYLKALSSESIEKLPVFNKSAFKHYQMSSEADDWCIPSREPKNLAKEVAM

## O=S(=O)(c1ccc(O)cc1O)N1Cc2cc(O)cc(O)c2C1 [PS10, 2-((2,4-dihydroxyphenyl)sulfonyl)isoindoline-4,6-diol]
[1]
  Kd: 47000 nM
PDK4; Table 1, inhibitor 31.6 nM to 1 mM, read-out: IC50, μM for PDK4
  IC50: 0.76 µM
PDK4; absence of E2/E3BP core (−), read-out: IC50 for PDK4
  IC50: 0.77 µM
DIO mice
  fat in the liver, Oil Red O stain: larger amounts of fat were present in the liver of the vehicle-treated DIO mice compared with PS10-treated
PDC
  PDC activity in heart, fold over vehicle-treated: 11 fold
  PDC activity in kidneys, fold enhancement over vehicle-treated: 1.4 fold
  PDC activity in liver, fold over vehicle-treated: 23 fold
  PDC activity in quadriceps muscle vs vehicle-treated: no difference
